PubChem BioAssay AID1963873 (Molecular Pharmacology Branch, DTP, NCI, 2024)

Test system: 276233-004-R-J1-PDC KRAS spheroids with HUVEC/MSC, viability
Test: Anticancer human tumor 276233-004-R-J1-PDC patient-derived colon adenocarcinoma cell line growth inhibition [KRAS2]
Details: for IC50: curve of first compound; for viability, T/C: stronger effect = lower value
From the text: Multicellular complex tumor spheroid response to RAS pathway inhibitors in combination with a targeted agents in patient-derived cell lines with oncogenic KRAS variants from multiple cancer types
A high-throughput screen of multi-cell type tumor spheroids was designed to identify active combinations of targeted small molecules and KRAS pathway inhibitors. Complex spheroids include a stromal component modeled by human endothelial cells (HUVEC) and fibroblasts modeled by human mesenchymal stem cells (MSCs). The concentration ranges selected for each drug and investigational agent were based upon clinically achievable concentrations if the clinical Cmax of the agent was known.
Compounds. The drugs and investigational agents: BI-3406 (NSC825286), BAY-293 (NSC824723), batoprotafib (TNO155; NSC825523), sotorasib (AMG 510; NSC818433), MRTX1257 (NSC819558), elimusertib (BAY 1895344; NSC800525), molibresib (GSK525762; NSC774829), temuterkib (LY3214996; NSC803410), venetoclax (NSC766270), alisertib (NSC759677), olaparib (NSC753686), talazoparib (NSC767125), erdafitinib (NSC781556), ipatasertib (NSC767898), cabozantinib (NSC761068), nintedanib (NSC756659), abemaciclib (NSC768073), docetaxel (NSC628503), trametinib (NSC758246), and sapanisertib (NSC764658) were obtained from the National Cancer Institute (NCI) Developmental Therapeutics Program Chemical Repository. The FDA-approved anticancer drug set is available from the Developmental Therapeutics Program. […] The stock solutions were prepared in dimethyl sulfoxide (DMSO, Sigma-Aldrich, St. Louis, MO, cat. D2650) at 800-fold the tested concentration and stored at -70 degrees C prior to their use. All drugs and investigational agents were tested over a range starting from a high concentration at or near the clinical Cmax and decreasing in half-log increments. If the clinical Cmax for an agent had not been determined, the highest concentration tested was 10 microM.
Cell Culture. All cells were maintained in an incubator at 37 degrees C and 5% CO2 with 95% humidity. The PDC lines were cultured according to standard operating procedures established by the NCI PDMR (https://pdmr.cancer.gov/sops/default.htm). Briefly, all PDCs were thawed and cultured in Matrigel-coated flasks prepared with a working solution of 1X Ham's F-12 nutrient mix, without supplementation (Invitrogen, Waltham, MA, cat. 11765054), 100 U/mL penicillin-streptomycin (Invitrogen, cat. 15140122), and 2.5% Matrigel (Corning Inc., Corning, NY, cat. 354248) for the first three passages. All PDCs were cultured in complete DMEM/F-12 media containing advanced DMEM/F-12 (Invitrogen, cat. 12634028), 4.9% defined fetal bovine serum, heat inactivated (HyClone Laboratories Inc., Logan, UT, cat. SH30070.03HI), 389 ng/mL hydrocortisone (Sigma-Aldrich, cat. H4001), 9.7 ng/mL human EGF recombinant protein (Invitrogen, cat. PHG0313), 23.4 microg/mL adenine (Sigma-Aldrich, cat. A2786), 97.3 U/mL penicillin-streptomycin (Invitrogen, cat. 15140122), 1.9 mM L-glutamine (Invitrogen, cat. 25030081), and 9.7 microM Y-27632 dihydrochloride (Tocris Bioscience, Bristol, United Kingdom, cat. 1254). The PDCs were cultured in complete DMEM/F12 media without 9.7 microM Y-27632 dihydrochloride for at least two passages prior to the screen. The established cell line HOP-62 was cultured in RPMI 1640 medium, HEPES (Invitrogen, cat. 22400105) with 10% defined fetal bovine serum (HyClone Laboratories Inc., cat. SH30070.03) and 2 mM L-glutamine (Invitrogen, cat. 25030081). The pooled donor HUVEC were cultured in endothelial cell growth medium 2 (PromoCell, Heidelberg, Germany, cat. C-22011) and the hMSC were cultured in mesenchymal stem cell growth medium 2 (PromoCell, cat. C-28009). For all experiments, HUVEC and hMSC were used at passages </=5, while the malignant cell lines were used at passages </=15. […]

[1] = second compound 0.1 µM, first compound 0.0316 µM
[2] = second compound 0.316 µM, first compound 0.0316 µM
[3] = second compound 1 µM, first compound 0.0316 µM
[4] = second compound 3.16 µM, first compound 0.0316 µM
[5] = second compound 10 µM, first compound 0.0316 µM
[6] = second compound 0.1 µM, first compound 0.1 µM
[7] = second compound 0.1 µM, first compound 0.316 µM
[8] = second compound 0.1 µM, first compound 1 µM
[9] = second compound 0.1 µM, first compound 3.16 µM
[10] = second compound 0.1 µM, first compound 10 µM
[11] = second compound 0.316 µM, first compound 0.1 µM
[12] = second compound 0.316 µM, first compound 0.316 µM
[13] = second compound 0.316 µM, first compound 1 µM
[14] = second compound 0.316 µM, first compound 3.16 µM
[15] = second compound 0.316 µM, first compound 10 µM
[16] = second compound 1 µM, first compound 0.1 µM
[17] = second compound 1 µM, first compound 0.316 µM
[18] = second compound 1 µM, first compound 1 µM
[19] = second compound 1 µM, first compound 3.16 µM
[20] = second compound 1 µM, first compound 10 µM
[21] = second compound 3.16 µM, first compound 0.1 µM
[22] = second compound 3.16 µM, first compound 0.316 µM
[23] = second compound 3.16 µM, first compound 1 µM
[24] = second compound 3.16 µM, first compound 3.16 µM
[25] = second compound 3.16 µM, first compound 10 µM
[26] = second compound 10 µM, first compound 0.1 µM
[27] = second compound 10 µM, first compound 0.316 µM
[28] = second compound 10 µM, first compound 1 µM
[29] = second compound 10 µM, first compound 3.16 µM
[30] = second compound 10 µM, first compound 10 µM
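Also: cells exposed to agents for seven days before viability read.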
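For viability, T/C in this document: 100% = DMSO vehicle control wells and lower values mean fewer viable cells.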

CC(=O)Nc1cccc(-n2c(=O)n(C3CC3)c(=O)c3c(Nc4ccc(I)cc4F)n(C)c(=O)c(C)c32)c1 + C=CC(=O)N1CCN(c2nc(=O)n(-c3c(C)ccnc3C(C)C)c3nc(-c4c(O)cccc4F)c(F)cc23)C(C)C1
IC50 (second compound 0.1 µM): 0.00644 µM | IC50 (second compound 0.316 µM): 0.00946 µM | IC50 (second compound 1 µM): 0.00928 µM | IC50 (second compound 3.16 µM): 0.00641 µM | IC50 (second compound 10 µM): 0.00245 µM | viability, T/C (second compound 0.1 µM, first compound 0.0001 µM): 89.9% | viability, T/C (second compound 0.1 µM, first compound 0.000316 µM): 97.5% | viability, T/C (second compound 0.1 µM, first compound 0.001 µM): 85.7% | viability, T/C (second compound 0.1 µM, first compound 0.00316 µM): 58.9% | viability, T/C (second compound 0.1 µM, first compound 0.01 µM): 45.4% | viability, T/C [1]: 21.3% | viability, T/C (second compound 0.316 µM, first compound 0.0001 µM): 87.1% | viability, T/C (second compound 0.316 µM, first compound 0.000316 µM): 84.9% | viability, T/C (second compound 0.316 µM, first compound 0.001 µM): 76.9% | viability, T/C (second compound 0.316 µM, first compound 0.00316 µM): 74% | viability, T/C (second compound 0.316 µM, first compound 0.01 µM): 47.9% | viability, T/C [2]: 18.6% | viability, T/C (second compound 1 µM, first compound 0.0001 µM): 102% | viability, T/C (second compound 1 µM, first compound 0.000316 µM): 85.5% | viability, T/C (second compound 1 µM, first compound 0.001 µM): 80% | viability, T/C (second compound 1 µM, first compound 0.00316 µM): 71.9% | viability, T/C (second compound 1 µM, first compound 0.01 µM): 49.5% | viability, T/C [3]: 19.4% | viability, T/C (second compound 3.16 µM, first compound 0.0001 µM): 75.2% | viability, T/C (second compound 3.16 µM, first compound 0.000316 µM): 96.3% | viability, T/C (second compound 3.16 µM, first compound 0.001 µM): 65.8% | viability, T/C (second compound 3.16 µM, first compound 0.00316 µM): 59.5% | viability, T/C (second compound 3.16 µM, first compound 0.01 µM): 45.9% | viability, T/C [4]: 24.2% | viability, T/C (second compound 10 µM, first compound 0.0001 µM): 74.2% | viability, T/C (second compound 10 µM, first compound 0.000316 µM): 73% | viability, T/C (second compound 10 µM, first compound 0.001 µM): 57.6% | viability, T/C (second compound 10 µM, first compound 0.00316 µM): 45.4% | viability, T/C (second compound 10 µM, first compound 0.01 µM): 36.8% | viability, T/C [5]: 21.3%

COc1cc(Nc2ncc3c(n2)-c2ccc(Cl)cc2C(c2c(F)cccc2OC)=NC3)ccc1C(=O)O + C=CC(=O)N1CCN(c2nc(=O)n(-c3c(C)ccnc3C(C)C)c3nc(-c4c(O)cccc4F)c(F)cc23)C(C)C1
IC50 (second compound 0.1 µM): > 10 µM | IC50 (second compound 0.316 µM): > 10 µM | IC50 (second compound 1 µM): > 10 µM | IC50 (second compound 3.16 µM): > 10 µM | IC50 (second compound 10 µM): > 10 µM | viability, T/C [1]: 132% | viability, T/C [6]: 118% | viability, T/C [7]: 117% | viability, T/C [8]: 104% | viability, T/C [9]: 116% | viability, T/C [10]: 88.3% | viability, T/C [2]: 112% | viability, T/C [11]: 110% | viability, T/C [12]: 117% | viability, T/C [13]: 111% | viability, T/C [14]: 99% | viability, T/C [15]: 97% | viability, T/C [3]: 102% | viability, T/C [16]: 118% | viability, T/C [17]: 108% | viability, T/C [18]: 115% | viability, T/C [19]: 110% | viability, T/C [20]: 96.5% | viability, T/C [4]: 139% | viability, T/C [21]: 125% | viability, T/C [22]: 110% | viability, T/C [23]: 105% | viability, T/C [24]: 96.3% | viability, T/C [25]: 89.1% | viability, T/C [5]: 88.3% | viability, T/C [26]: 107% | viability, T/C [27]: 87.4% | viability, T/C [28]: 91.6% | viability, T/C [29]: 79.3% | viability, T/C [30]: 86.5%

COc1cc2nccc(Oc3ccc(NC(=O)C4(C(=O)Nc5ccc(F)cc5)CC4)cc3)c2cc1OC + C=CC(=O)N1CCN(c2nc(=O)n(-c3c(C)ccnc3C(C)C)c3nc(-c4c(O)cccc4F)c(F)cc23)C(C)C1
IC50 (second compound 0.1 µM): > 10 µM | IC50 (second compound 0.316 µM): > 10 µM | IC50 (second compound 1 µM): > 10 µM | IC50 (second compound 3.16 µM): > 10 µM | IC50 (second compound 10 µM): > 10 µM | viability, T/C [1]: 93.5% | viability, T/C [6]: 109% | viability, T/C [7]: 96% | viability, T/C [8]: 84.7% | viability, T/C [9]: 101% | viability, T/C [10]: 104% | viability, T/C [2]: 97.4% | viability, T/C [11]: 112% | viability, T/C [12]: 83.7% | viability, T/C [13]: 91.3% | viability, T/C [14]: 87.4% | viability, T/C [15]: 76.3% | viability, T/C [3]: 89.1% | viability, T/C [16]: 91.2% | viability, T/C [17]: 84.9% | viability, T/C [18]: 72.1% | viability, T/C [19]: 74.5% | viability, T/C [20]: 75.1% | viability, T/C [4]: 85.5% | viability, T/C [21]: 79.8% | viability, T/C [22]: 102% | viability, T/C [23]: 76.7% | viability, T/C [24]: 72.4% | viability, T/C [25]: 114% | viability, T/C [5]: 82.3% | viability, T/C [26]: 74.9% | viability, T/C [27]: 69.1% | viability, T/C [28]: 81.8% | viability, T/C [29]: 88.5% | viability, T/C [30]: 76%
